Read-outs that look alike come from different tables or passages of the source.
Legend:
Dd2 = experiment: Cross-resistance EC50 assay, Dd2 parent; format: cell-based, Plasmodium falciparum; conditions: Plasmodium falciparum, DD2, 72 h
From the text: (§1) Multidrug resistance alleles, including mutations in P. falciparum chloroquine resistance transporter (pfcrt) and P. falciparum multi-drug resistance transporter 1 (pfmdr1) are very common in field isolates. Therefore, we sought to assess the degree to which pre-existing resistance alleles would contribute to a loss of potency for this diverse collection of small molecule compounds. Fifteen clones derived from three main parent lines were chosen to maximize diversity in mutated pathways and genetic backgrounds, thus representing the variety of resistance seen in the field: 3D7 (ref. [23]), W2 (ref. [24]) or Dd2 (ref. [25]). The 3D7 line originates from the clone of a Netherlands clinical isolate strain[23][26] and is generally considered to be drug sensitive, though it does convey resistance to sulfadoxine. Conversely, W2 (ref. [24], [27]) and Dd2 (ref. [25]) are multi-drug-resistant lines originating from the Indochina III/CDC isolate, which contain point mutations in pfcrt as well as amplifications in pfmdr1 and GTP cyclohydrolase.
To evaluate potential overlapping activity against known antimalarial drug targets, we performed dose-response studies with each compound against our assembled set of drug-resistant lines and their corresponding parents, in an asexual blood stage proliferation assay (Table 1). Comparisons were made to the drug-sensitive strain 3D7 when a parent was unavailable (TM90C2A, W2 and Dd2). As laboratories conducted EC50 assays with different strains and protocols, all comparisons were made between assays from the same laboratory and under the same assay conditions. Compounds displaying >5-fold EC50 shifts relative to the parent or sensitive strain were flagged as having potentially non-novel targets. Average fold shifts per strain ranged from 0.82 to 2.34, with a median of 1.23 indicating there was not common resistance to any one resistant clone. No resistance patterns were observed when classifying the compounds based on chemical structure, but this was not surprising given the diversity of compounds chosen. On the other hand, given that these confirmed compounds were derived from larger unconfirmed hit lists to which some filtration criteria may have been applied (for example, elimination of obvious dihydrofolate reductase inhibitors[32]), some[10][11][12][13] pre-existing bias may exist in the set. […]
Alternatively, a SYBR Green-based proliferation approach was used for the 72-h assay, as previously described. Briefly, a culture of either synchronized or asynchronous parasitized RBCs (0.3% parasitemia and 4% haematocrit) in screening medium (identical to supplemented medium above except no serum was added) was exposed to serial drug dilutions. Plates were incubated at 37 °C and gassed with 93% N2, 4% CO2 and 3% O2 for 72 h. Following incubation, 10 × SYBR Green I (Invitrogen; supplied in 10,000 × concentration) in lysis buffer ([…], 5 mM EDTA, 0.16% Saponin wt per vol and 1.6% Triton X vol per vol) was added to the wells and the plates were incubated overnight at room temperature before plate reading. EC50 assays were repeated three times, taking the average EC50 value from each assay set, and removing any outliers using a single iteration of Grubbs' test, eliminating values with z-scores above the critical z-value (α=0.05). The raw EC50 values for synchronized parasites assayed in a 384-well format are listed in Supplementary Data 4. The raw EC50 values for asynchronous parasites assayed in a 96 or 1536-well format are listed in Supplementary Data 5.
EC50 values for each strain were compared with those of the corresponding parent strain to determine fold-shift changes and identify resistance. To minimize the cause variance between assays, all comparisons were conducted between strains assayed under identical conditions. A one-way ANOVA followed by a Dunnet's post-test was conducted in GraphPad Prism to identify significant changes between the parent and resistant strain.

3D7 = experiment: Cross-resistance EC50 assay, 3D7 parent / sensitive strain; format: cell-based; conditions: Plasmodium falciparum
From the text: as §1
(§2) To evaluate potential overlapping activity against known antimalarial drug targets, we performed dose-response studies with each compound against our assembled set of drug-resistant lines and their corresponding parents, in an asexual blood stage proliferation assay (Table 1). Comparisons were made to the drug-sensitive strain 3D7 when a parent was unavailable (TM90C2A, W2 and Dd2). As laboratories conducted EC50 assays with different strains and protocols, all comparisons were made between assays from the same laboratory and under the same assay conditions. Compounds displaying >5-fold EC50 shifts relative to the parent or sensitive strain were flagged as having potentially non-novel targets. Average fold shifts per strain ranged from 0.82 to 2.34, with a median of 1.23 indicating there was not common resistance to any one resistant clone. No resistance patterns were observed when classifying the compounds based on chemical structure, but this was not surprising given the diversity of compounds chosen. On the other hand, given that these confirmed compounds were derived from larger unconfirmed hit lists to which some filtration criteria may have been applied (for example, elimination of obvious dihydrofolate reductase inhibitors[32]), some[10][11][12][13] pre-existing bias may exist in the set.
(§3) The 48-h assay was carried out in a 96-well format following standard methods using the ^3H-hypoxanthine incorporation assay. The raw EC50 values corresponding to this assay can be found in Supplementary Data 3. Briefly, this assay relies on the parasite incorporation of labelled hypoxanthine that is proportional to P. falciparum growth. A culture of parasitized RBCs (0.5% parasitemia with a percentage of ring stage higher than 70% of total parasitemia, 2.0% haematocrit) in RPMI-1640, […] and 5 μM hypoxanthine was exposed to drug serial dilutions. Plates were incubated for 24 h at 37 °C, 5% CO2, 5% O2 and 90% N2. After 24 h of incubation, ^3H-hypoxanthine was added and plates were incubated for an additional 24-h period. After that, parasites were harvested on a glass fibre filter using a TOMTEC Cell Harvester 96. Filters were dried and melt-on scintillator sheets were used to determine the incorporation of ^3H-hypoxanthine. Radioactivity was measured using a microbeta counter. Data were normalized using the incorporation of the positive (parasitized RBCs without drug) and negative (same culture with artesunate at 2 μM) controls. All assays were conducted in triplicate using three independently grown cultures, and EC50 values were determined using the XLfit add-in module for Excel (version 2.3.1) from Grafit (version 5.3.1.3), where parameter h is the assay hill slope, x is the compound concentration and y is the inhibition of growth effect. The XLfit equation is: […]
(§4) Alternatively, a SYBR Green-based proliferation approach was used for the 72-h assay, as previously described. […]

W2 = experiment: Cross-resistance EC50 assay, W2 parent; format: cell-based, Plasmodium falciparum; conditions: Plasmodium falciparum, 48 h, read-out: W2F6 (PARENT) Average EC50
From the text: as §1, §2, §3, §4

[1] = read-out: Dd2 (PARENT) Average EC50
[2] = read-out: Dd2 (PARENT) EC50 (µM) Average EC50
[3] = SYBR green 72 hour assay, asynchronized parasites, 96-well or 1536-well format, 3D7 parent, read-out: 3D7 (PARENT) EC50 (µM) Average EC50
[4] = SYBR green 72 hour assay, synchronized parasites, 384-well format, strain 3D7 (parent), read-out: 3D7 (PARENT) Average EC50
[5] = hypoxanthine 48-hour assay, synchronized parasites, 96-well format, strain 3D7 (parent), read-out: 3D7 (PARENT) Average EC50
[6] = hypoxanthine 48-hour assay, synchronized parasites, 96-well format, strain 3D7-C9-WT (parent of PfATP4 Mut3), read-out: 3D7-C9-WT (PARENT) Average EC50

Compound	EC50 (Dd2; [1])	EC50 (Dd2; [2])	EC50 (3D7; [3])	EC50 (3D7; [4])	EC50 (3D7; [5])	EC50 (W2)	EC50 (3D7; [6])	EC50 (3D7; 3D7, 48 h, read-out: 3D7 (PARENT) Average EC50)	EC50 (3D7; 3D7, 48 h, read-out: 3D7-C9-WT (PARENT) Average EC50)	EC50 (3D7; 3D7, 72 h, read-out: 3D7 (PARENT) Average EC50)	EC50 (3D7; 3D7, 72 h, read-out: 3D7 (PARENT) EC50 (µM) Average EC50)
COCCNCC(O)Cn1c2ccc(Cl)cc2c2cc(Cl)ccc21 (stereo not shown) [MMV019017]	0.477 µM	0.998 µM	0.537 µM	0.763 µM	0.62 µM	0.138 µM					
COc1ccccc1CNC(=O)CCn1c(=O)[nH]c2ccsc2c1=O [MMV019066]	0.054 µM	0.00951 µM	0.007 µM	0.168 µM	1.67 µM	1.27 µM	2.17 µM				
Cl.c1ccc2c(NCCCCCCNc3c4c(nc5ccccc35)CCCC4)c3c(nc2c1)CCCC3 [MMV019555]	0.236 µM	0.241 µM				0.491 µM		0.087 µM	0.094 µM	0.062 µM	0.065 µM
COc1ccc(N2CCN(C(CNC(=O)C3CCCCC3)c3ccc4c(c3)OCO4)CC2)cc1 (stereo not shown) [MMV019662]	0.357 µM	0.242 µM	0.358 µM	0.98 µM	0.34 µM	0.428 µM	0.81 µM				
COc1ccc(-c2nc(NC(=O)Cc3ccc4c(c3)OCCO4)sc2C)cc1 [MMV019719]	0.26 µM	0.277 µM	0.236 µM	0.2 µM	0.165 µM	0.143 µM	0.132 µM				
Cc1ccc(Oc2ncccc2C(=O)Cc2cccc3cccnc23)c(C)c1 [MMV020746]	0.241 µM	1.86 µM	0.993 µM	0.096 µM	0.074 µM	0.247 µM	0.093 µM				
COc1cc(-c2nc(-c3ccccc3)c(-c3ccccc3)[nH]2)cc(OC)c1O [MMV020750]	0.678 µM	0.773 µM	0.575 µM	0.597 µM	0.342 µM	1.87 µM	0.656 µM				
CCCCCCCN(Cc1ccc(OC(C)(C)C(=O)OCC)cc1)C(=O)Nc1ccc(Cl)cc1OCC [MMV021735]	0.258 µM	1.29 µM	0.054 µM	0.383 µM	0.459 µM	0.361 µM	0.543 µM				
CN(C)Cc1ccc(-c2cc3c(-c4ccc(CN(C)C)cc4)ccnc3[nH]2)cc1.O=C(O)C(F)(F)F [MMV022224]	0.41 µM	0.302 µM	0.224 µM	0.242 µM	0.343 µM	0.406 µM	0.356 µM				
Nc1ncc(-c2cn[nH]c2)cc1-c1nc2ccc(F)cc2[nH]1 [MMV023367]	0.654 µM	1.96 µM	1.13 µM	0.519 µM	0.303 µM	0.244 µM	0.269 µM				
CN(C)S(=O)(=O)c1cc(-c2ccc3nccc(-c4cccc(S(N)(=O)=O)c4)c3c2)cnc1N [MMV024038]	0.106 µM	0.509 µM	0.764 µM	0.217 µM	0.174 µM	0.327 µM	0.258 µM				
Cc1ccc(S(=O)(=O)n2cc(-c3ccnc(N)c3)c3cc(Br)cnc32)cc1 [MMV024114]	0.766 µM	1.64 µM	1.17 µM	0.418 µM	0.264 µM	1.05 µM	0.219 µM				
CNCc1ccc2nc(-c3coc(Cc4cc(Cl)ccc4OCC(C)C)n3)[nH]c2c1.Cl.Cl [MMV026596]	0.347 µM	0.158 µM	0.304 µM	0.321 µM	0.377 µM	0.645 µM	0.472 µM				
COc1cc(-c2nc(-c3ccccc3)c(-c3ccccc3)[nH]2)ccc1OCCN(C)C [MMV027496]	0.304 µM	0.74 µM	0.241 µM	0.118 µM	0.112 µM	0.272 µM	0.084 µM				

Reference: article PMC4912613, “A broad analysis of resistance development in the malaria parasite” (Nature Communications, 2016)
